One assay deals with benzodiazepine receptor. The assay is described as follows: Benzodiazepine Receptor Binding Assay. Particulars: read-out: BZP-receptor Binding IC50; [3H]-diazepam 1.5 nM; rat brain crude synaptosome membrane; 0° C., 20 min.
In assay [1] the test system is ddY male mice (pentylentetrazol-induced convulsion). The assay is described as follows: Test of Increasing Activity on Pentylentetrazol-induced Convulsion. To be noted: Mus musculus, 0.5 h, po, pentylentetrazol 70 mg/kg s.c. 15 min later, read-out: Effects (number of animals) with increased pentylentetrazol-induced convulsion (converted). It is filed as in vivo. The method, then:
It is known that benzodiazepine receptor inverse agonists increase convulsion induced by pentylentetrazol [cf. Progress in Neuro-Psychopharmacology and Biological Psychiatry, vol. […] Some compounds of the present invention were tested as to the activities of increasing the pentylentetrazol-induced convulsion.
A test compound (compounds disclosed in working examples) was orally administered to ddY male mice (weight; 22-25 g, five mice/group) in an amount of 5-100 mg/kg. […] The effects were evaluated by the number of mice among five mice, of which the convulsion increasing effects were observed.

In assay [2] the test system is GABAA receptor complex (TBPS binding). The assay is described as follows: TBPS Binding Assay. Also on record: species or system Wistar rats. Particulars: [35S]TBPS 0.4 nM, GABA 1 μM, rat cerebral cortex membrane, +% inverse agonistic, 0% antagonistic. The protocol: The TBPS (t-butylbicyclophosphonothionate) binding assay and the preparation of the membrane specimen were done in a similar manner to the method of Biggio, G. et al. [cf. European Journal of Pharmacology, vol.
That is, to the cerebral cortex was added a 50-fold volume of an ice-cooled buffer (a 50 mM Tris-citrate buffer containing 100 mM sodium chloride, pH 7.4) and the mixture was homogenized at 0-4° C. and then centrifuged at 20,000 g for 20 minutes. The pellets thus obtained were once subjected to homogenization in a buffer and centrifugation by the same procedure as above and then kept in freezed state at -80° C. for more than 20 hours. On the test day, the freezed pellets were thawed and then subjected twice to the homogenization-centrifugation procedure as described above.
Subsequently, the filter was moved into a liquid scintillation vial and thereto was added a liquid scintillation cocktail (ACS-II, manufactured by Amersham, USA, 10 ml) and allowed to stand for a fixed period of time. […] Separately, the same procedures were repeated in the presence of Picrotoxin to determine the non-specific binding amount. The non-specific binding amount was deducted from the total binding amount to give the specific binding amount. The binding activity of the test compound was calculated by a variation rate, i.e., a rate of the specific binding amount of the test compound to the specific binding amount in control (using a solvent).

pIC50: −log10 of the molar value.

As for `CCc1noc(-c2cc3c(-c4ccc(OC)cc4)nccc3[nH]c2=O)n1` [Example 210, 3-(3-Ethyl-1,2,4-oxadiazol-5-yl)-5-(4-methoxyphenyl)-1,6-naphthyridin-2(1H)-one], the pIC50 (commonly −log10 of the IC50, conventionally taken in molar units) at benzodiazepine receptor was 8.47. Besides, the responders at 10 mg/kg in assay [1] was 80%. Besides, the “TBPS binding Variation Rate” value in assay [2] is listed as 15%.
The like results for `Cc1nc(-c2cc3c(-c4ccccc4)nccc3[nH]c2=O)no1` [Example 4] were, in that order, 8.78, 80% and 20%.
Consider `CCCc1noc(-c2cc3c(-c4ccco4)nccc3[nH]c2=O)n1` [Example 220], for which, on benzodiazepine receptor, the pIC50 was 9.03. Moreover, in assay [1], the responders at 20 mg/kg is 80%.
As for `Cc1nc(-c2cc3c(-c4ccccc4Cl)nccc3[nH]c2=O)no1` [Example 88], the pIC50 on benzodiazepine receptor was 8.33. Further, the responders at 10 mg/kg in assay [1] is 100%. Moreover, the “TBPS binding Variation Rate” value in assay [2] is 41%.
As for `CC(C)c1nccc2[nH]c(=O)c(-c3noc(C4CC4)n3)cc12` [Example 50], the pIC50 on benzodiazepine receptor is 9.06. In assay [2], the “TBPS binding Variation Rate” value is reported as 40%.
The like results for `CC(C)c1nc(-c2cc3c(-c4ccccc4)nccc3[nH]c2=O)no1` [Example 45] were, in that order, 9.02 and -9%.
As for `CCc1nc(-c2cc3c(C4CC4C)nccc3[nH]c2=O)no1` (stereo not drawn) [Example 18, 3-(5-Ethyl-1,2,4-oxadiazol-3-yl)-5-(2-methylcyclopropyl)-1,6-naphthyridin-2(1H)-one], the pIC50 at benzodiazepine receptor was 8.69. The responders at 20 mg/kg in assay [1] is 60%. Further, the “TBPS binding Variation Rate” value in assay [2] was 10%.
As for `CCc1nc(-c2cc3c(-c4ccco4)nccc3[nH]c2=O)no1` [Example 102], at benzodiazepine receptor, the pIC50 is 9.09. Besides, the responders at 10 mg/kg in assay [1] is 100%. In assay [2], the “TBPS binding Variation Rate” value was 33%.
`CCc1noc(-c2cc3c(-c4ccsc4)nccc3[nH]c2=O)n1` [Example 212]: at benzodiazepine receptor, the pIC50 is 8.90. Moreover, the “TBPS binding Variation Rate” value in assay [2] is recorded as 27%.
The like results for `Cc1ccc(-c2nccc3[nH]c(=O)c(-c4nc(C5CC5)no4)cc23)cc1` [Example 244] were, in that order, 8.39 and -15%.
For the molecule `CCc1noc(-c2cc3c(C)nccc3[nH]c2=O)n1` [Example 191, 3-(3-Ethyl-1,2,4-oxadiazol-5-yl)-5-methyl-1,6-naphthyridin-2(1H)-one], the responders at 10 mg/kg in assay [1] is 100%. Besides, the “TBPS binding Variation Rate” value in assay [2] is 18%.
Consider `CCc1nc(-c2cc3c(C4CCCCC4)nccc3[nH]c2=O)no1` [Example 23], for which the pIC50 on benzodiazepine receptor is 8.75. Also, the “TBPS binding Variation Rate” value in assay [2] was -23%.
For `CCc1nc(-c2cc3c(-c4cccnc4)nccc3[nH]c2=O)no1` [Example 106], in that order: 8.71 and 20%.
The like results for `O=c1[nH]c2ccnc(-c3ccc(Cl)cc3)c2cc1-c1nc(C2CC2)no1` [Example 241] were, in that order, 8.22 and -14%.
Regarding `Cc1noc(-c2cc3c(-c4ccsc4)nccc3[nH]c2=O)n1` [Example 190], the pIC50 on benzodiazepine receptor is 8.80. Besides, in assay [2], the “TBPS binding Variation Rate” value came out at 34%.
The like results for `CCc1nc(-c2cc3c(CC)nccc3[nH]c2=O)no1` [Example 14] were, in that order, 8.02 and 38%.
For `Cc1noc(-c2cc3c(-c4cccc(Cl)c4)nccc3[nH]c2=O)n1` [Example 180], in that order: 8.91 and 13%.
With `Cc1nc(-c2cc3c(CC(C)C)nccc3[nH]c2=O)no1` [Example 3], the pIC50 at benzodiazepine receptor is 8.45. Also, in assay [2], the “TBPS binding Variation Rate” value is recorded as 12%.
The like results for `Cc1noc(-c2cc3c(-c4ccccc4Cl)nccc3[nH]c2=O)n1` [Example 179] were, in that order, 8.33 and 37%.
For `Cc1nc(-c2cc3c(-c4cccc(Cl)c4)nccc3[nH]c2=O)no1` [Example 7], in that order: 8.62 and 12%.
Consider `CCc1nc(-c2cc3c(-c4cccc5ccccc45)nccc3[nH]c2=O)no1` [Example 100], for which the pIC50 at benzodiazepine receptor is 8.88. Moreover, the “TBPS binding Variation Rate” value in assay [2] was -23%.
`CCc1nc(-c2cc3c(CC4CCCCC4)nccc3[nH]c2=O)no1` [Example 24]: on benzodiazepine receptor, the pIC50 was 8.35. The “TBPS binding Variation Rate” value in assay [2] was determined as 22%.
For `CC(C)c1noc(-c2cc3c(-c4ccco4)nccc3[nH]c2=O)n1` [Example 229], in that order: 8.95 and 10%.
In the case of `Cc1ccc(-c2nccc3[nH]c(=O)c(-c4nc(C)no4)cc23)cc1` [Example 184], the responders at 50 mg/kg in assay [1] (50 mg/kg) is 100%. In addition, the “TBPS binding Variation Rate” value in assay [2] is 17%.
In the case of `Cc1nc(-c2cc3c(-c4ccco4)nccc3[nH]c2=O)no1` [Example 91], the pIC50 at benzodiazepine receptor is 9.21. Besides, the “TBPS binding Variation Rate” value in assay [2] worked out at 38%.
Take `Cc1noc(-c2cc3c(-c4ccccc4)nccc3[nH]c2=O)n1` [Example 175]: the pIC50 on benzodiazepine receptor is 8.92. In addition, the “TBPS binding Variation Rate” value in assay [2] amounted to 28%.
As to `Cc1ccc(-c2nccc3[nH]c(=O)c(-c4noc(C5CC5)n4)cc23)cc1` [Example 58], the pIC50 at benzodiazepine receptor was 8.82. Further, the “TBPS binding Variation Rate” value in assay [2] was -15%.
The like results for `Cc1noc(-c2cc3c(-c4ccc(F)cc4)nccc3[nH]c2=O)n1` [Example 178] were, in that order, 8.64 and 25%.
For `CC(C)c1nccc2[nH]c(=O)c(-c3nc(C4CC4)no3)cc12` [Example 233], in that order: 8.80 and 31%.
The like results for `Cc1noc(-c2cc3c(-c4ccccc4F)nccc3[nH]c2=O)n1` [Example 176] were, in that order, 8.67 and 39%.
Consider `O=c1[nH]c2ccnc(-c3ccccc3)c2cc1-c1noc(C2CC2)n1` [Example 52], for which, at benzodiazepine receptor, the pIC50 is 9.13. In assay [2], the “TBPS binding Variation Rate” value is reported as -11%.
Take `CCc1nc(-c2cc3c(-c4ccccc4Cl)nccc3[nH]c2=O)no1` [Example 96]: the pIC50 at benzodiazepine receptor is 8.55. Further, in assay [2], the “TBPS binding Variation Rate” value worked out at 16%.
Take `CCc1noc(-c2cc3c(-c4ccccc4)nccc3[nH]c2=O)n1` [Example 198]: at benzodiazepine receptor, the pIC50 is 8.99. Besides, in assay [2], the “TBPS binding Variation Rate” value was 11%.
For `O=c1[nH]c2ccnc(-c3cccc(Cl)c3)c2cc1-c1nc(C2CC2)no1` [Example 240], in that order: 8.60 and -13%.
For `O=c1[nH]c2ccnc(-c3ccco3)c2cc1-c1nc(C2CC2)no1` [Example 245], in that order: 9.09 and 13%.
On to `CCc1noc(-c2cc3c(-c4ccccc4Cl)nccc3[nH]c2=O)n1` [Example 202], for which the negative-log IC50 (pIC50) on benzodiazepine receptor was 8.68. For the same molecule, the “TBPS binding Variation Rate” value in assay [2] is reported as 22%.
For `CCCc1nc(-c2cc3c(-c4ccccc4)nccc3[nH]c2=O)no1` [Example 38], in that order: 8.88 and 25%.
For `Cc1noc(-c2cc3c(-c4cccs4)nccc3[nH]c2=O)n1` [Example 189], in that order: 9.08 and 29%.
Regarding `Cc1nc(-c2cc3c(-c4ccsc4)nccc3[nH]c2=O)no1` [Example 93], the negative-log IC50 (pIC50) on benzodiazepine receptor was 8.76. Further, in assay [2], the “TBPS binding Variation Rate” value was found to be 34%.
For the molecule `CCc1nc(-c2cc3c(-c4ccncc4)nccc3[nH]c2=O)no1` [Example 107], on benzodiazepine receptor, the pIC50 was 8.18. Besides, the “TBPS binding Variation Rate” value in assay [2] was 17%.
For `CCc1nc(-c2cc3c(CC(C)C)nccc3[nH]c2=O)no1` [Example 20], in that order: 8.56 and -13%.
For `CCc1noc(-c2cc3c(C4CC4)nccc3[nH]c2=O)n1` [Example 194], in that order: 8.97 and 32%.
Consider `CCc1noc(-c2cc3c(-c4ccco4)nccc3[nH]c2=O)n1` [Example 211], for which the pIC50 on benzodiazepine receptor was 9.09. For the same molecule, the “TBPS binding Variation Rate” value in assay [2] is given as 24%.
In the case of `COc1ccc(-c2nccc3[nH]c(=O)c(-c4nc(C)no4)cc23)cc1` [Example 187], on benzodiazepine receptor, the pIC50 is 8.19. Besides, in assay [2], the “TBPS binding Variation Rate” value is recorded as 27%.

For the origin of these results see patent US6172079A, “5-substituted-3-oxadiazolyl-1,6-naphthyridin-2(1H)-one derivatives” (Dainippon Pharmaceutical Co., Ltd., priority 1997, dated 2001).
